Activity calls are given as the source filed them. The rule behind the calls is not given here.
Legend:
[1] = target: T1, Kelch-like ECH-associated protein 1/Nuclear factor erythroid 2-related factor 2 (Mus musculus) (UniProt Q60795+Q9Z2X8); experiment: Inhibition of Keap1/Nrf2 protein-protein interaction in mouse RAW264.7 cells assessed as increase in GCLM levels up to 10 uM after 8 hrs by Western blot analysis; type: cell-based
[2] = target: T1, Kelch-like ECH-associated protein 1/Nuclear factor erythroid 2-related factor 2 (Mus musculus); experiment: Inhibition of Keap1/Nrf2 protein-protein interaction in mouse RAW264.7 cells assessed as increase in NQO1 levels up to 10 uM after 8 hrs by Western blot analysis; type: cell-based
[3] = target: T1, Kelch-like ECH-associated protein 1/Nuclear factor erythroid 2-related factor 2 (Mus musculus); experiment: Inhibition of Keap1/Nrf2 protein-protein interaction in mouse RAW264.7 cells assessed as upregulation of HO-1 mRNA expression at 0.1 to 10 uM after 10 hrs by quantitative real-time-PCR analysis; type: cell-based
[4] = target: T1, Kelch-like ECH-associated protein 1/Nuclear factor erythroid 2-related factor 2 (Mus musculus); experiment: Inhibition of Keap1/Nrf2 protein-protein interaction in mouse RAW264.7 cells assessed as increase in HO-1 levels up to 10 uM after 8 hrs by Western blot analysis; type: cell-based
[5] = target: T1, Kelch-like ECH-associated protein 1/Nuclear factor erythroid 2-related factor 2 (Mus musculus); experiment: Inhibition of Keap1/Nrf2 protein-protein interaction in mouse RAW264.7 cells assessed as upregulation of GCLM mRNA expression at 0.1 to 10 uM after 10 hrs by quantitative real-time-PCR analysis; type: cell-based
[6] = target: T1, Kelch-like ECH-associated protein 1/Nuclear factor erythroid 2-related factor 2 (Mus musculus); experiment: Inhibition of Keap1/Nrf2 protein-protein interaction in mouse RAW264.7 cells assessed as upregulation of NQO1 mRNA expression at 0.1 to 10 uM after 10 hrs by quantitative real-time-PCR analysis; type: cell-based
[7] = tested on: RAW264.7; experiment: Anti-inflammatory activity in mouse RAW264.7 cells assessed restoration of LPS-induced decrease in GSH-Px activity at 10 uM; type: functional, cell-based
[8] = tested on: RAW264.7; experiment: Inhibition of LPS-induced increase in ROS levels in mouse RAW264.7 cells up to 10 uM preincubated for 10 hrs followed by LPS stimulation for 12 hrs by cH2DCF-DA dye-based fluorescent microscopy; type: functional, cell-based
[9] = target: T1, Kelch-like ECH-associated protein 1/Nuclear factor erythroid 2-related factor 2 (Mus musculus); experiment: Inhibition of Keap1/Nrf2 protein-protein interaction in mouse RAW264.7 cells assessed as upregulation of HO1 mRNA expression at 1 uM after 10 hrs by quantitative real-time-PCR analysis; type: cell-based
[10] = tested on: RAW264.7; experiment: Upregulation of SOD protein expression in mouse RAW264.7 cells at 1 uM after 8 hrs by Western blot analysis; type: functional, cell-based
[11] = target: T1, Kelch-like ECH-associated protein 1/Nuclear factor erythroid 2-related factor 2 (Mus musculus); experiment: Inhibition of Keap1/Nrf2 protein-protein interaction in mouse RAW264.7 cells assessed as upregulation of NQO1 mRNA expression at 1 uM after 10 hrs by quantitative real-time-PCR analysis; type: cell-based
[12] = tested on: RAW264.7; experiment: Anti-inflammatory activity in mouse RAW264.7 cells assessed as inhibition of LPS-induced TNFalpha production up to 10 uM pretreated for 10 hrs followed by LPS stimulation for 12 hrs by ELISA; type: functional, cell-based
[13] = tested on: RAW264.7; details: Mus musculus, up to 10 µM
Description: Anti-inflammatory activity in mouse RAW264.7 cells assessed as inhibition of LPS-induced IL-18 production up to 10 uM pretreated for 10 hrs followed by LPS stimulation for 12 hrs by ELISA

[14] = tested on: RAW264.7; experiment: Upregulation of GSH-Px protein expression in mouse RAW264.7 cells at 1 uM after 8 hrs by Western blot analysis; type: functional, cell-based
[15] = tested on: RAW264.7; experiment: Anti-inflammatory activity in mouse RAW264.7 cells assessed as inhibition of LPS-induced IL-1beta production up to 10 uM pretreated for 10 hrs followed by LPS stimulation for 12 hrs by ELISA; type: functional, cell-based
[16] = tested on: RAW264.7; experiment: Anti-inflammatory activity in mouse RAW264.7 cells assessed inhibition of LPS-induced increase in MPO activity at 10 uM; type: functional, cell-based
[17] = tested on: RAW264.7; experiment: Anti-inflammatory activity in mouse RAW264.7 cells assessed as reduction in LPS-induced NO production by measuring NO level at 10 uM preincubated for 10 hrs followed by LPS stimulation for 12 hrs by Griess assay (reference value: 50 uM); type: functional
[18] = target: T1, Kelch-like ECH-associated protein 1/Nuclear factor erythroid 2-related factor 2 (Mus musculus); experiment: Inhibition of Keap1/Nrf2 protein-protein interaction in mouse RAW264.7 cells assessed as upregulation of GCLM mRNA expression at 1 uM after 10 hrs by quantitative real-time-PCR analysis; type: cell-based
[19] = tested on: RAW264.7; experiment: Anti-inflammatory activity in mouse RAW264.7 cells assessed as restoration of LPS-induced decrease in SOD activity at 10 uM; type: functional, cell-based

T1 sequence (Q60795 whole entry, looked up): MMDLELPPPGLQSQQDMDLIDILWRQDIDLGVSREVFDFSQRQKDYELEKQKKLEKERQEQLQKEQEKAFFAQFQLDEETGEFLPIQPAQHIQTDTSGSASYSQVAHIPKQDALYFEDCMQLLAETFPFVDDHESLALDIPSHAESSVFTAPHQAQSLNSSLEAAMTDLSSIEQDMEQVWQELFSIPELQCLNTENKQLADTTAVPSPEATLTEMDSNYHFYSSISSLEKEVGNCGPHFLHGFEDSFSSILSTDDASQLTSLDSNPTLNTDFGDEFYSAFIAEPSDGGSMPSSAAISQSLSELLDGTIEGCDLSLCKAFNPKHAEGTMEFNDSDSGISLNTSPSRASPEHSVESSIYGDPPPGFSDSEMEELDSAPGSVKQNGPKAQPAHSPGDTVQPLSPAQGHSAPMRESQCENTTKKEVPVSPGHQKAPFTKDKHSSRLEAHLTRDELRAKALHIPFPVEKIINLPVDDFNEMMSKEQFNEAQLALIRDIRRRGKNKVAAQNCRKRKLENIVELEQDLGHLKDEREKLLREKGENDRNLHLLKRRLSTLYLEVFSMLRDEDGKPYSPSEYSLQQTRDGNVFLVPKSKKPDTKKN
T1 sequence (Q9Z2X8 whole entry, looked up): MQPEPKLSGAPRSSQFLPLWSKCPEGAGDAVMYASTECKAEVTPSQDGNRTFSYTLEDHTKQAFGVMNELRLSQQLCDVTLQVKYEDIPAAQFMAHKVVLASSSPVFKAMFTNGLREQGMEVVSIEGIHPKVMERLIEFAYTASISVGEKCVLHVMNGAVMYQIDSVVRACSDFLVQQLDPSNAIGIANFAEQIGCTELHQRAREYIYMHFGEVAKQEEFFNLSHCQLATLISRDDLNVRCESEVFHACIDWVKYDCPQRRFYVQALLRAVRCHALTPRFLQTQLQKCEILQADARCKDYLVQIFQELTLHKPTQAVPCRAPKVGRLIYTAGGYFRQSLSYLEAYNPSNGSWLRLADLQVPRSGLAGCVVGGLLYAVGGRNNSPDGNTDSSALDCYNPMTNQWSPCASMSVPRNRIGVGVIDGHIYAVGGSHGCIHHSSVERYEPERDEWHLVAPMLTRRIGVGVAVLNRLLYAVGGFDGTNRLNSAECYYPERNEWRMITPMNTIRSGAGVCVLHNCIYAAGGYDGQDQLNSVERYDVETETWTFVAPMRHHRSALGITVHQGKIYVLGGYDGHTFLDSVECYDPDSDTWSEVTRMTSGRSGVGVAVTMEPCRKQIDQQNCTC

SMILES	inhibition [1]	inhibition [2]	inhibition [3]	inhibition [4]	inhibition [5]	inhibition [6]	Activity [7]	inhibition [8]	inhibition [9]	Activity [10]	inhibition [11]	inhibition [12]	inhibition [13]	Activity [14]	inhibition [15]	inhibition [16]	Activity [17]	inhibition [18]	Activity [19]
CC(=O)NCC(=O)N[C@@H](CCC(N)=O)C(=O)N[C@@H](CC(C)C)C(=O)N[C@@H](CC(=O)O)C(=O)N1CCC[C@H]1C(=O)N[C@@H](CCC(=O)O)C(=O)N[C@H](C(=O)NCC(=O)N[C@@H](CCC(=O)O)C(=O)N[C@@H](Cc1ccccc1)C(=O)N[C@@H](CC(C)C)C(=O)O)[C@@H](C)O	inactive	inactive	inactive	inactive	inactive	inactive													
CC(C)C[C@@H]1NC(=O)[C@H](Cc2ccccc2)NC(=O)[C@H](CCC(=O)O)NC(=O)CNC(=O)[C@H]([C@@H](C)O)NC(=O)[C@H](CCC(=O)O)NC(=O)[C@@H]2CCCN2C(=O)[C@H](CC(=O)O)NC(=O)[C@H](CC(C)C)NC(=O)[C@H](CCC(N)=O)NC(=O)CNC1=O	Active	Active		Active			Active	Active	Active	Active	Active	Active	Active	Active	Active	Active	14 µM	Active	Active

Source: ChEMBL document CHEMBL4138151, “Discovery of a head-to-tail cyclic peptide as the Keap1-Nrf2 protein-protein interaction inhibitor with high cell potency” (Eur J Med Chem, 2018)
